According to patent US10596185B2, “Flavonoid compositions and uses thereof” (INGREDIENTS BY NATURE, priority 2014, dated 2020):
In brackets after ≈: the same amount, converted by molar mass. Where two headings read alike, the source gives them in different places. Marks after values point to notes of the source that are not given here.

How the values were obtained:
[1] = Total ORACFN (sum over the five reactive species); assay type: biochemical; set-up: ORAC-FN: unit not given here; details: for ORAC-FN: Table 5 summary, total ORACFN, unit not given; for Compare quercetin (ORAC-FN): anti-oxidant activity relative to quercetin
Method: This example describes the anti-oxidant activity of the eriodictyol complex described in Table 1. Anti-oxidant activity was measured using an oxygen radical absorbance capacity assay for food and nutrition ([…]). The assay was performed using techniques known in the art, such as those disclosed in Ou, B. et al., J Agric and Food Chem, 2001, 49 (10): 4619-4626; Huang, D. et al., J Agric and Food Chem, 2002, 50 (7): 1815-1821; Ou, B. et al., J Agric and Food Chem, 2002, 50 (10): 2772-2777; Zhang, L. et al., Free Radic. Bio Med, 2007, 43 (suppl. 1): S17; Dubost, N.J. et al., Food Chem, 2007, 105 (2): 727-735; Zhang, L. et al., J Agric and Food Chem, 2009, 57(7): 2661-2667; and U.S. Pat. No. 7,132,296, the contents of all of which are incorporated herein by reference. The activity of the eriodictyol complex against peroxyl radicals, hydroxyl radicals, peroxynitrite, super oxide anion, and singlet oxygen was measured. The total […] was also measured.

[2] = system: NF-kB; assay: NF-kB-luciferase assay system in C2C12 cell line; assay type: cell-based; details: for Compare quercetin (EC50 NF-kB): NF-kB inhibitory activity relative to quercetin
Method: Activity of the complex was measured using a C2C12 cell line with a NF-kB-luciferase assay system (Affymetrix, Santa Clara, Calif.), and compared to a number of flavonoid controls.

[3] = system: IL-6; assay: IL-6 level in mice fed a high-fat diet; assay type: in vivo; details: for IL-6: high fat diet mice, mean ± standard deviation
Method: (§1) The effects of eriocitrin and eriodictyol on anti-inflammatory markers were determined in mice fed a high-fat diet and compared to negative control, untreated mice that were fed either a standard- or high-fat-diet. Eriocitrin and eriodictyol effects were also compared against ibuprofen- and hesperidin-treated, high-fat-diet-fed mice. The effects of these various treatments on the cytokines IL-6, IL-10, MCP-1, and TNF-alpha are shown below.

[4] = system: IL-10; assay: IL-10 level in mice fed a high-fat diet; assay type: in vivo; details: mean ± standard deviation
Method: as §1

[5] = system: MCP-1; assay: MCP-1 level in mice fed a high-fat diet; assay type: in vivo; details: for MCP-1: high fat diet mice, mean ± standard deviation
Method: as §1

[6] = system: TNF-alpha; assay: TNF-alpha level in mice fed a high-fat diet; assay type: in vivo; details: mean ± standard deviation
Method: as §1

[7] = Clinical study of metabolic syndrome symptoms (fasting glucose, insulin, hs-CRP, lipid panel); assay type: in vivo; details: humans, after 30 days, ≥10 hour fast, versus placebo
Method: A clinical study is performed in which subjects undergo a one-week run-in period during which subject document baseline data. Subjects meeting the inclusion/exclusion criteria are enrolled in the study and sent a glucometer to determine their fasting blood glucose levels. Those meeting the study criteria are enrolled in the study.
The subjects fast for at least 10 hours, and their fasting glucose, fasting insulin, hs-CRP levels, and lipid panels (including LDL, HDL, and triglycerides) are measured. Following these baseline measurements, subjects consume (1) 50 mg-2 g/day eriocitrin; (2) 50 mg-2 g/day eriocitrin, 50-250 mg/day neoeriocitrin, 50-250 mg/day hesperidin; or (3) a placebo. After 30 days, the subjects' glucose, insulin, hs-CRP, and lipid panel measurements are taken after a ≥10 hour fast.

[8] = Mus musculus, C2C12, Table 5 summary, unit inferred, read-out: EC50 NF-kB
[9] = Mus musculus, NF-kB inhibition, C2C12 cell line, NF-kB-luciferase, read-out: EC50
[10] = high-fat-diet-fed mice, in words

Row | SMILES | EC50 [2, 8] [µg/mL] | EC50 [2, 9] [µg/mL] | Compare quercetin (EC50 NF-kB) [2] | ORAC-FN [1] | Compare quercetin (ORAC-FN) [1] | IL-6 [3] | IL-10 [4] | MCP-1 [5] | TNF-alpha [6] | other results
1 | C[C@@H]1O[C@@H](OC[C@H]2O[C@@H](Oc3cc(O)c4c(c3)O[C@H](c3ccc(O)c(O)c3)CC4=O)[C@H](O)[C@@H](O)[C@@H]2O)[C@H](O)[C@H](O)[C@H]1O [Eriocitrin, eriodictyol 7-O-B-rutinoside] | 71.4 (≈ 120 µM) | 71.4 (≈ 120 µM) | 0.35 | 31355 | 0.475 | 3.1 ± 1.6^a | 4.0 ± 2.2 | 19.3 ± 11.1^a | 2.4 ± 0.6 | IL-6 levels in comparison to the negative controls [3, 10]: significantly reduced; MCP-1 levels in comparison to the negative controls [5, 10]: significantly reduced; HDL levels [7]: increased; LDL levels [7]: reduced; glucose levels [7]: reduced; hs-CRP levels [7]: reduced; insulin levels [7]: reduced; total cholesterol levels [7]: reduced
2 | COc1ccc(-c2cc(=O)c3c(O)cc(O[C@@H]4O[C@H](CO[C@@H]5O[C@@H](C)[C@H](O)[C@@H](O)[C@H]5O)[C@@H](O)[C@H](O)[C@H]4O)cc3o2)cc1O [Diosmin] | 349 (≈ 573 µM) | 349 (≈ 573 µM) | 0.07 | 373 | 0.006 |  |  |  |  | 
3 | CC(C)Cc1ccc(C(C)C(=O)O)cc1 (stereo not drawn) [Ibuprofen] |  |  |  |  |  | 21.9 ± 18.1^a | 6.0 ± 4.5 | 43.4 ± 31.5^ab | 1.2 ± 2.4 | 
4 | COc1ccc([C@@H]2CC(=O)c3c(O)cc(O[C@@H]4O[C@H](CO[C@@H]5O[C@@H](C)[C@H](O)[C@@H](O)[C@H]5O)[C@@H](O)[C@H](O)[C@H]4O)cc3O2)cc1O [Hesperidin 90, Hesperidin] |  |  | 0.09 | 6067 | 0.092 |  |  |  |  | EC50 ([2]; NF-kB inhibition, C2C12 cell line, NF-kB-luciferase): 275.70 µg/mL (≈ 452 µM); EC50 NF-kB ([2]; Table 5 summary, unit not given, in µg/mL): 275.70
5 | COc1ccc([C@@H]2CC(=O)c3c(O)cc(O)cc3O2)cc1O [Hesperitin 95, Hesperitin] | 54.2 (≈ 179 µM) | 54.2 (≈ 179 µM) | 0.46 | 77875 | 1.180 |  |  |  |  | 
6 | COc1ccc([C@@H]2CC(=O)c3c(O)cc(O[C@@H]4O[C@H](CO[C@@H]5O[C@@H](C)[C@H](O)[C@@H](O)[C@H]5O)[C@@H](O)[C@H](O)[C@H]4O)cc3O2)cc1O [Hesperidin] |  |  |  |  |  | 5.9 ± 4.6^a | 5.3 ± 2.4 | 27.6 ± 9.0^a | 2.7 ± 0.3 | 

Continued, in another order:

Row | EC50 [2, 8] [µg/mL] | EC50 [2, 9] [µg/mL] | Compare quercetin (EC50 NF-kB) [2] | SMILES | ORAC-FN [1] | Compare quercetin (ORAC-FN) [1] | IL-6 [3] | IL-10 [4] | MCP-1 [5] | TNF-alpha [6] | other results
7 | 32 (≈ 118 µM) | 32 (≈ 118 µM) | 0.78 | O=C1C[C@@H](c2ccc(O)cc2)Oc2cc(O)cc(O)c21 [Naringenin] | 59454 | 0.901 |  |  |  |  | 
8 | 381 (≈ 656 µM) | 381 (≈ 656 µM) | 0.07 | C[C@@H]1O[C@@H](O[C@H]2[C@H](Oc3cc(O)c4c(c3)O[C@H](c3ccc(O)cc3)CC4=O)O[C@H](CO)[C@@H](O)[C@@H]2O)[C@H](O)[C@H](O)[C@H]1O [Naringin] | 22389 | 0.339 |  |  |  |  | 
9 |  | 31.5 (≈ 104 µM) |  | O=c1c(O)c(-c2ccc(O)c(O)c2)oc2cc(O)cc(O)c12 [Quercetin•2H2O] |  |  |  |  |  |  | 
